# Assay results: ChEMBL document CHEMBL1275354, “Anticonvulsant activity of 2,4(1H)-diarylimidazoles in mice and rats acute seizure models” (Bioorg Med Chem, 2010)
# Calls of active or inactive are those of the source. No cut-off for these calls is given here.
# Tests used:
# Rattus norvegicus [1] = assay: Anticonvulsant activity in albino Sprague-Dawley rat assessed as protection against maximal electroshock-induced seizures at 30 mg/kg, po after 4 hrs; format: functional, organism-based; parameters: dose 30 mg/kg
# Rattus norvegicus [2] = assay: Anticonvulsant activity in albino Sprague-Dawley rat assessed as protection against maximal electroshock-induced seizures at 30 mg/kg, po after 0.25 hrs; format: functional, organism-based; parameters: dose 30 mg/kg
# Mus musculus [3] = assay: Neurotoxicity in albino CF1 mouse assessed as minimal motor impairment at 30 mg/kg, ip after 0.5 hrs by rotarod test; format: toxicity, organism-based; parameters: dose 30 mg/kg, route intraperitoneal; conditions: in vivo
# Mus musculus [4] = assay: Anticonvulsant activity in albino CF1 mouse assessed as protection against subcutaneous metrazole-induced seizures at 100 mg/kg, ip after 4 hrs; format: functional, organism-based; parameters: dose 100 mg/kg
# Mus musculus [5] = assay: Neurotoxicity in albino CF1 mouse assessed as minimal motor impairment at 100 mg/kg, ip after 0.5 hrs by rotarod test; format: toxicity, organism-based; parameters: dose 100 mg/kg, route intraperitoneal; conditions: in vivo
# Rattus norvegicus [6] = assay: Neurotoxicity in albino Sprague-Dawley rat assessed as minimal motor impairment at 30 mg/kg, po by rotarod test; format: toxicity, organism-based; parameters: dose 30 mg/kg, route oral; conditions: in vivo
# Mus musculus [7] = assay: Anticonvulsant activity in albino CF1 mouse assessed as protection against subcutaneous metrazole-induced seizures at 30 mg/kg, ip after 0.5 hrs; format: functional, organism-based; parameters: dose 30 mg/kg
# Mus musculus [8] = assay: Neurotoxicity in albino CF1 mouse assessed as minimal motor impairment at 100 mg/kg, ip after 4 hrs by rotarod test; format: toxicity, organism-based; parameters: dose 100 mg/kg, route intraperitoneal; conditions: in vivo
# Mus musculus [9] = assay: Anticonvulsant activity in albino CF1 mouse assessed as protection against maximal electroshock-induced seizures at 100 mg/kg, ip after 0.5 hrs; format: functional, organism-based; parameters: dose 100 mg/kg
# Mus musculus [10] = assay: Anticonvulsant activity in albino CF1 mouse assessed as protection against subcutaneous metrazole-induced seizures at 300 mg/kg, ip after 0.5 hrs; format: functional, organism-based; parameters: dose 300 mg/kg
# Mus musculus [11] = assay: Anticonvulsant activity in albino CF1 mouse assessed as protection against maximal electroshock-induced seizures at 300 mg/kg, ip after 4 hrs; format: functional, organism-based; parameters: dose 300 mg/kg
# Mus musculus [12] = assay: Anticonvulsant activity in albino CF1 mouse assessed as protection against maximal electroshock-induced seizures at 30 mg/kg, ip after 0.5 hrs; format: functional, organism-based; parameters: dose 30 mg/kg
# Mus musculus [13] = assay: Neurotoxicity in albino CF1 mouse assessed as minimal motor impairment at 30 mg/kg, ip after 4 hrs by rotarod test; format: toxicity, organism-based; parameters: dose 30 mg/kg, route intraperitoneal; conditions: in vivo
# Mus musculus [14] = assay: Anticonvulsant activity against maximal electroshock-induced seizures in ip dosed albino CF1 mouse assessed as minimum effective dose after 4 hrs; format: functional; conditions: read-out: MED
# Mus musculus [15] = assay: Neurotoxicity in albino CF1 mouse assessed as minimal motor impairment at 30 to 300 mg/kg, ip after 0.5 hrs by rotarod test; conditions: in vivo
# Mus musculus [16] = assay: Anticonvulsant activity against subcutaneous metrazole-induced seizures in ip dosed albino CF1 mouse assessed as minimum effective dose after 4 hrs; format: functional; conditions: albino CF1, 4 h, read-out: MED
# Rattus norvegicus [17] = assay: Anticonvulsant activity in albino Sprague-Dawley rat assessed as protection against maximal electroshock-induced seizures at 30 mg/kg, po after 0.5 hrs; format: functional, organism-based; parameters: dose 30 mg/kg
# Mus musculus [18] = assay: Anticonvulsant activity in albino CF1 mouse assessed as protection against maximal electroshock-induced seizures at 300 mg/kg, ip after 0.5 hrs; format: functional, organism-based; parameters: dose 300 mg/kg
# Mus musculus [19] = assay: Neurotoxicity in ip dosed albino CF1 mouse assessed as minimum dose required to cause toxicity after 0.5 hrs by rotarod test; format: organism-based; conditions: in vivo
# Mus musculus [20] = assay: Neurotoxicity in ip dosed albino CF1 mouse assessed as minimum dose required to cause toxicity after 4 hrs by rotarod test; format: organism-based; conditions: in vivo
# Mus musculus [21] = assay: Anticonvulsant activity against maximal electroshock-induced seizures in ip dosed albino CF1 mouse assessed as minimum effective dose after 0.5 hrs; format: functional; conditions: read-out: MED
# Rattus norvegicus [22] = assay: Anticonvulsant activity in albino Sprague-Dawley rat assessed as protection against maximal electroshock-induced seizures at 30 mg/kg, po after 2 hrs; format: functional, organism-based; parameters: dose 30 mg/kg
# Mus musculus [23] = assay: Anticonvulsant activity against subcutaneous metrazole-induced seizures in ip dosed albino CF1 mouse assessed as minimum effective dose after 0.5 hrs; format: functional; conditions: albino CF1, 0.5 h, read-out: MED
# Mus musculus [24] = assay: Anticonvulsant activity in albino CF1 mouse assessed as protection against maximal electroshock-induced seizures at 30 mg/kg, ip after 4 hrs; format: functional, organism-based; parameters: dose 30 mg/kg
# Mus musculus [25] = assay: Anticonvulsant activity in albino CF1 mouse assessed as protection against subcutaneous metrazole-induced seizures at 300 mg/kg, ip after 4 hrs; format: functional, organism-based; parameters: dose 300 mg/kg
# Mus musculus [26] = assay: Anticonvulsant activity in albino CF1 mouse assessed as protection against subcutaneous metrazole-induced seizures at 30 mg/kg, ip after 4 hrs; format: functional, organism-based; parameters: dose 30 mg/kg
# Rattus norvegicus [27] = assay: Anticonvulsant activity in albino Sprague-Dawley rat assessed as protection against maximal electroshock-induced seizures at 30 mg/kg, po after 1 hr; format: functional, organism-based; parameters: dose 30 mg/kg
# Mus musculus [28] = assay: Anticonvulsant activity in albino CF1 mouse assessed as protection against subcutaneous metrazole-induced seizures at 100 mg/kg, ip after 0.5 hrs; format: functional, organism-based; parameters: dose 100 mg/kg
# Mus musculus [29] = assay: Neurotoxicity in albino CF1 mouse assessed as minimal motor impairment at 300 mg/kg, ip after 0.5 hrs by rotarod test; format: toxicity, organism-based; parameters: dose 300 mg/kg, route intraperitoneal; conditions: in vivo
# Mus musculus [30] = assay: Neurotoxicity in albino CF1 mouse assessed as minimal motor impairment at 300 mg/kg, ip after 4 hrs by rotarod test; format: toxicity, organism-based; parameters: dose 300 mg/kg, route intraperitoneal; conditions: in vivo
# Mus musculus [31] = assay: Anticonvulsant activity in albino CF1 mouse assessed as protection against maximal electroshock-induced seizures at 100 mg/kg, ip after 4 hrs; format: functional, organism-based; parameters: dose 100 mg/kg
# Mus musculus [32] = assay: Neurotoxicity in albino CF1 mouse assessed as minimal motor impairment at 30 to 300 mg/kg, po after 4 hrs by rotarod test; format: toxicity, organism-based; parameters: dose 30-300 mg/kg, route oral; conditions: in vivo
# Mus musculus [33] = assay: Anticonvulsant activity in albino CF1 mouse assessed as protection against maximal electroshock-induced seizures at 100 mg/kg, ip after 2 hrs; format: functional, organism-based; parameters: dose 100 mg/kg
SMILES,Activity (Mus musculus [3]),Activity (Mus musculus [4]),Activity (Mus musculus [5]),Activity (Mus musculus [7]),Activity (Mus musculus [8]),Activity (Mus musculus [9]),Activity (Mus musculus [10]),Activity (Mus musculus [11]),Activity (Mus musculus [12]),Activity (Mus musculus [13]),minimal effective dose (Mus musculus [14]) [mg/kg],Activity (Mus musculus [15]),minimal effective dose (Mus musculus [16]) [mg/kg],Activity (Mus musculus [18]),MED (Mus musculus [19]) [mg/kg],MED (Mus musculus [20]) [mg/kg],minimal effective dose (Mus musculus [21]) [mg/kg],minimal effective dose (Mus musculus [23]) [mg/kg],Activity (Mus musculus [24]),Activity (Mus musculus [25]),also measured
COc1ccc(-c2c[nH]c(-c3ccccc3)n2)cc1,Non-toxic,inactive,Non-toxic,inactive,Non-toxic,Active,Active,Active,inactive,Non-toxic,100,Non-toxic,> 300,Active,100,100,> 30,100,inactive,inactive,Activity (Rattus norvegicus [1]): inactive; Activity (Rattus norvegicus [2]): inactive; Activity (Rattus norvegicus [6]): Non-toxic; Activity (Rattus norvegicus [17]): inactive; Activity (Rattus norvegicus [22]): inactive; Activity (Mus musculus [26]): inactive; Activity (Rattus norvegicus [27]): inactive; Activity (Mus musculus [28]): inactive; Activity (Mus musculus [29]): Toxic; Activity (Mus musculus [30]): Toxic
Clc1ccc(-c2c[nH]c(-c3ccccc3)n2)cc1,Non-toxic,inactive,Non-toxic,inactive,Non-toxic,Active,inactive,Active,inactive,Non-toxic,100,Non-toxic,> 300,Active,100,> 300,> 30,> 300,inactive,inactive,Activity (Rattus norvegicus [1]): inactive; Activity (Rattus norvegicus [2]): inactive; Activity (Mus musculus [31]): inactive; Activity (Rattus norvegicus [6]): Non-toxic; Activity (Rattus norvegicus [17]): inactive; Activity (Rattus norvegicus [22]): inactive; Activity (Mus musculus [26]): inactive; Activity (Rattus norvegicus [27]): inactive; Activity (Mus musculus [28]): inactive; Activity (Mus musculus [32]): Non-toxic; Activity (Mus musculus [30]): Non-toxic
FC(F)(F)c1cccc(-c2nc(-c3ccccc3)c[nH]2)c1,Non-toxic,inactive,Non-toxic,inactive,Non-toxic,inactive,inactive,Active,inactive,Non-toxic,100,Non-toxic,> 300,inactive,100,> 300,> 300,> 300,inactive,inactive,Activity (Mus musculus [31]): inactive; Activity (Mus musculus [26]): inactive; Activity (Mus musculus [28]): inactive; Activity (Mus musculus [32]): Non-toxic; Activity (Mus musculus [33]): inactive; Activity (Mus musculus [30]): Non-toxic
